Measured values as given in patent US4604238A, “Analogs of calcitonin” (Armour Pharmaceutical Company, priority 1984, dated 1986).
Bridge positions count the residues as written; N and C are the ends. Peptide text beside a SMILES is read from it.

How the values were obtained:
[1] = test system: serum calcium concentration
Procedure: Biological Assay of Calcitonin Analogs In Vivo
Rats were divided into four groups of seven animals, and each group was assigned at random to a dose of standard or test solution. Low and high doses were chosen from the linear portion of the dose-response curve. For the salmon calcitonin standard, the values were 0.7 and 2.1 ng. peptide/100 g. body weight (BW). This dose approximates 3 and 9 MU/100 g. BW. Peptides were given by subcutaneous injection (0.2 ml/100 g. BW) and blood was withdrawn 1 hour later for serum calcium determination. Sera are processed and analyzed within two hours of collection. Results were analyzed within two hours of collection.

[2] = literature values, Experientia 32(9), 1104-1106 (1976); cited from earlier work

Compound | hypocalcemic potency [2] | also measured
CC(C)C[C@H](NC(=O)CNC(=O)[C@@H]1CSSC[C@H](N)C(=O)NCC(=O)N[C@@H](CO)C(=O)N[C@@H](CC(C)C)C(=O)N[C@@H](CO)C(=O)N[C@@H]([C@@H](C)O)C(=O)N1)C(=O)NCC(=O)N[C@@H](CCCCN)C(=O)N[C@@H](CC(C)C)C(=O)N[C@@H](CO)C(=O)N[C@@H](CCC(N)=O)C(=O)N[C@@H](CCC(=O)O)C(=O)N[C@@H](CC(C)C)C(=O)N[C@@H](Cc1c[nH]cn1)C(=O)N[C@@H](CCCCN)C(=O)N[C@@H](CC(C)C)C(=O)N[C@@H](CCC(N)=O)C(=O)N[C@H](C(=O)N1CCC[C@H]1C(=O)N[C@@H](CCCNC(=N)N)C(=O)N[C@H](C(=O)N[C@@H](CC(N)=O)C(=O)N[C@H](C(=O)NCC(=O)N[C@@H](CO)C(=O)NCC(=O)N[C@H](C(=O)N1CCC[C@H]1C(N)=O)[C@@H](C)O)[C@@H](C)O)[C@@H](C)O)[C@@H](C)O [[Gly^2,Ser^3,Gly^8,des-Tyr^22]SCT, [Gly^2,Ser^3,Gly^8,des-Tyr^22]salmon calcitonin] (H-CGSLSTCGLGKLSQELHKLQTPRTNTGSGTP-NH2; disulfide 1-7) | – | biological potency ([1]; rat, in vivo, sc): 8600 IU/mg
CC(C)C[C@H](NC(=O)[C@H](CCCCN)NC(=O)CNC(=O)[C@H](CC(C)C)NC(=O)[C@@H](NC(=O)[C@@H]1CSSC[C@H](N)C(=O)N[C@@H](CO)C(=O)N[C@@H](CC(N)=O)C(=O)N[C@@H](CC(C)C)C(=O)N[C@@H](CO)C(=O)N[C@@H]([C@@H](C)O)C(=O)N1)C(C)C)C(=O)N[C@@H](CO)C(=O)N[C@@H](CCC(N)=O)C(=O)N[C@@H](CCC(=O)O)C(=O)N[C@@H](CC(C)C)C(=O)N[C@@H](Cc1c[nH]cn1)C(=O)N[C@@H](CCCCN)C(=O)N[C@@H](CC(C)C)C(=O)N[C@@H](CCC(N)=O)C(=O)N[C@H](C(=O)N[C@@H](Cc1ccc(O)cc1)C(=O)N1CCC[C@H]1C(=O)N[C@@H](CCCNC(=N)N)C(=O)N[C@H](C(=O)N[C@@H](CC(N)=O)C(=O)N[C@H](C(=O)NCC(=O)N[C@@H](CO)C(=O)NCC(=O)N[C@H](C(=O)N1CCC[C@H]1C(N)=O)[C@@H](C)O)[C@@H](C)O)[C@@H](C)O)[C@@H](C)O [salmon calcitonin, Salmon calcitonin] | – | potency of the standard salmon calcitonin used ([1]; independently determined content of the standard): greater than 4,000 IU/mg
(1,7α-L-aminosuberic acid)eel calcitonin | about 3400 IU/mg | –
eel calcitonin [synthetic eel calcitonin] | around 4300 IU/mg | –
